According to patent US10954228B2 (NATIONAL INSTITUTES OF HEALTH, UNITED STATES DEPARTMENT OF …, priority 2016, dated 2021):

The compounds below were run against Human LDHA (Homo sapiens (Human), UniProt P00338) (assay: human LDHA primary biochemical assay). Conditions: biochemical LDHA inhibitory activity, assay of Example 1; activity level classes defined in nM.
Description: This example describes a human LDHA primary biochemical assay employed in the characterization of a compound of formula (I) in an embodiment of the invention.
Test compounds were placed in a Greiner Bio-One (Monroe, N.C.) 1536-well black solid bottom assay plate. 200 millimolar (mM) Tris HCl, pH 7.4, 100 micromolar (μM) EDTA and 0.01% TWEEN-20™, final concentration, was used as the assay buffer. The LDHA reagent was 2 nanomolar (nM) Human LDHA (Meridian Life Science, Inc., Memphis, Tenn.), final concentration, in assay buffer. The substrate reagent was 0.06 mM NADH and 0.2 mM sodium pyruvate, final concentration, in assay buffer. The resazurin/diaphorase coupling reagent was 0.037 mM resazurin and 0.133 milligrams per milliliter (mg/mL) diaphorase, final concentration, in assay buffer. The inhibition of LDHA activity was measured by fluorescence emission.

Structure (SMILES)	IC50 [nM]
COc1ccc(-c2cc(-c3nn(-c4nc(C(=O)O)cs4)c(CC4CC4)c3Cc3ccc(S(N)(=O)=O)c(F)c3)ccc2F)cc1Cl [Compound 191, 2-(3-(3′-chloro-6-fluoro-4′-methoxy-[1,1′-biphenyl]-3-yl)-5-(cyclopropylmethyl)-4-(3-fluoro-4-sulfamoylbenzyl)-1H-pyrazol-1-yl)thiazole-4-carboxylic acid]	< 100
CC(C)(C)c1cccc(-c2cc(-c3nn(-c4nc(C(=O)O)cs4)c(CC4CC4)c3Cc3ccc(S(N)(=O)=O)c(F)c3)ccc2F)c1 [Compound 192, 2-(3-(3′-(tert-butyl)-6-fluoro-[1,1′-biphenyl]-3-yl)-5-(cyclopropylmethyl)-4-(3-fluoro-4-sulfamoylbenzyl)-1H-pyrazol-1-yl)thiazole-4-carboxylic acid]	100 to 1000
CC(C)(C)c1ccc(-c2cc(-c3nn(-c4nc(C(=O)O)cs4)c(CC4CC4)c3Cc3ccc(S(N)(=O)=O)c(F)c3)ccc2F)cc1 [Compound 193, 2-(3-(4′-(tert-butyl)-6-fluoro-[1,1′-biphenyl]-3-yl)-5-(cyclopropylmethyl)-4-(3-fluoro-4-sulfamoylbenzyl)-1H-pyrazol-1-yl)thiazole-4-carboxylic acid]	100 to 1000
CN(C)c1cccc(-c2cc(-c3nn(-c4nc(C(=O)O)cs4)c(CC4CC4)c3Cc3ccc(S(N)(=O)=O)c(F)c3)ccc2F)c1 [Compound 194, 2-(5-(cyclopropylmethyl)-3-(3′-(dimethylamino)-6-fluoro-[1,1′-biphenyl]-3-yl)-4-(3-fluoro-4-sulfamoylbenzyl)-1H-pyrazol-1-yl)thiazole-4-carboxylic acid]	< 100
Cc1ccc(-c2cccc(-c3nn(-c4nc(C(=O)O)cs4)c(CC4CC4)c3Cc3ccc(S(N)(=O)=O)c(F)c3)c2)cc1 [Compound 198, 2-(5-(cyclopropylmethyl)-4-(3-fluoro-4-sulfamoylbenzyl)-3-(4′-methyl-[1,1′-biphenyl]-3-yl)-1H-pyrazol-1-yl)thiazole-4-carboxylic acid]	< 100
N#Cc1cccc(-c2cc(-c3nn(-c4nc(C(=O)O)cs4)c(CC4CC4)c3Cc3ccc(S(N)(=O)=O)c(F)c3)ccc2F)c1 [Compound 200, 2-(3-(3′-cyano-6-fluoro-[1,1′-biphenyl]-3-yl)-5-(cyclopropylmethyl)-4-(3-fluoro-4-sulfamoylbenzyl)-1H-pyrazol-1-yl)thiazole-4-carboxylic acid]	< 100
N#Cc1ccc(-c2cc(-c3nn(-c4nc(C(=O)O)cs4)c(CC4CC4)c3Cc3ccc(S(N)(=O)=O)c(F)c3)ccc2F)cc1 [Compound 201, 2-(3-(4′-cyano-6-fluoro-[1,1′-biphenyl]-3-yl)-5-(cyclopropylmethyl)-4-(3-fluoro-4-sulfamoylbenzyl)-1H-pyrazol-1-yl)thiazole-4-carboxylic acid]	< 100
Cc1ccc(-c2cccc(-c3nn(-c4nc(C(=O)O)cs4)c(CC4CC4)c3Cc3ccc(S(N)(=O)=O)c(F)c3)c2)cn1 [Compound 204, 2-(5-(cyclopropylmethyl)-4-(3-fluoro-4-sulfamoylbenzyl)-3-(3-(6-methylpyridin-3-yl)phenyl)-1H-pyrazol-1-yl)thiazole-4-carboxylic acid]	< 100
CC(C)c1ccc(-c2cccc(-c3nn(-c4nc(C(=O)O)cs4)c(CCC4CC4)c3Cc3ccc(S(N)(=O)=O)c(F)c3)c2)cc1 [Compound 206, 2-(5-(2-cyclopropylethyl)-4-(3-fluoro-4-sulfamoylbenzyl)-3-(4′-isopropyl-[1,1′-biphenyl]-3-yl)-1H-pyrazol-1-yl)thiazole-4-carboxylic acid]	100 to 1000
Cc1ccc(-c2ccc(-c3cccc(-c4nn(-c5nc(C(=O)O)cs5)c(CC5CC5)c4Cc4ccc(S(N)(=O)=O)c(F)c4)c3)cc2)s1 [Compound 208, 2-(5-(cyclopropylmethyl)-4-(3-fluoro-4-sulfamoylbenzyl)-3-(4′-(5-methylthiophen-2-yl)-[1,1′-biphenyl]-3-yl)-1H-pyrazol-1-yl)thiazole-4-carboxylic acid]	100 to 1000
CC(C)c1ccc(-c2cncc(-c3nn(-c4nc(C(=O)O)cs4)c(CC4CC4)c3Cc3ccc(S(N)(=O)=O)c(F)c3)c2)cc1 [Compound 210, 2-[5-(cyclopropylmethyl)-4-[(3-fluoro-4-sulfamoylphenyl)methyl]-3-[5-(4-isopropylphenyl)pyridin-3-yl]pyrazol-1-yl]-1,3-thiazole-4-carboxylic acid]	< 100
CC(C)c1ccc(-c2cccc(-c3nn(-c4nc(C(=O)O)cs4)c(CC4CC4)c3Cc3ccc(S(N)(=O)=O)c(F)c3)n2)cc1 [Compound 211, 2-[5-(cyclopropylmethyl)-4-[(3-fluoro-4-sulfamoylphenyl)methyl]-3-[6-(4-isopropylphenyl)pyridin-2-yl]pyrazol-1-yl]-1,3-thiazole-4-carboxylic acid]	100 to 1000
NS(=O)(=O)c1ccc(Cc2c(-c3ccc(F)c(-c4ccc(C5CC5)c(F)c4)c3)nn(-c3nc(C(=O)O)cs3)c2CC2CC2)cc1F [Compound 212, 2-{3-[3-(4-cyclopropyl-3-fluorophenyl)-4-fluorophenyl]-5-(cyclopropylmethyl)-4-[(3-fluoro-4-sulfamoylphenyl)methyl]pyrazol-1-yl}-1,3-thiazole-4-carboxylic acid]	100 to 1000
CC(C)c1cnc(-c2cccc(-c3nn(-c4nc(C(=O)O)cs4)c(CC4CC4)c3Cc3ccc(S(N)(=O)=O)c(F)c3)c2)s1 [Compound 215, 2-[5-(cyclopropylmethyl)-4-[(3-fluoro-4-sulfamoylphenyl)methyl]-3-[3-(5-isopropyl-1,3-thiazol-2-yl)phenyl]pyrazol-1-yl]-1,3-thiazole-4-carboxylic acid]	< 100

Now from value to compound:

IC50 [nM]	Structure (SMILES)
100 to 1000	NS(=O)(=O)c1ccc(Cc2c(-c3cccc(-c4ccc(CC(F)(F)F)cc4)c3)nn(-c3nc(C(=O)O)cs3)c2CC2CC2)cc1F [Compound 187, 2-(5-(cyclopropylmethyl)-4-(3-fluoro-4-sulfamoylbenzyl)-3-(4′-(2,2,2-trifluoroethyl)-[1,1′-biphenyl]-3-yl)-1H-pyrazol-1-yl)thiazole-4-carboxylic acid]
< 100	NS(=O)(=O)c1ccc(Cc2c(-c3cccc(-c4nc5ccccc5[nH]4)c3)nn(-c3nc(C(=O)O)cs3)c2CC2CC2)cc1F [Compound 189, 2-(3-(3-(1H-benzo[d]imidazol-2-yl)phenyl)-5-(cyclopropylmethyl)-4-(3-fluoro-4-sulfamoylbenzyl)-1H-pyrazol-1-yl)thiazole-4-carboxylic acid]
< 100	Cc1cc(-c2cc(-c3nn(-c4nc(C(=O)O)cs4)c(CC4CC4)c3Cc3ccc(S(N)(=O)=O)c(F)c3)ccc2F)ccc1F [Compound 195, 2-(5-(cyclopropylmethyl)-3-(4′,6-difluoro-3′-methyl-[1,1′-biphenyl]-3-yl)-4-(3-fluoro-4-sulfamoylbenzyl)-1H-pyrazol-1-yl)thiazole-4-carboxylic acid]
< 100	NS(=O)(=O)c1ccc(Cc2c(-c3ccc(F)c(N4CCCC4=O)c3)nn(-c3nc(C(=O)O)cs3)c2CC2CC2)cc1F [Compound 202, 2-(5-(cyclopropylmethyl)-3-(4-fluoro-3-(2-oxopyrrolidin-1-yl)phenyl)-4-(3-fluoro-4-sulfamoylbenzyl)-1H-pyrazol-1-yl)thiazole-4-carboxylic acid]
< 100	Cc1ccc(-c2cccc(-c3nn(-c4nc(C(=O)O)cs4)c(CC4CC4)c3Cc3ccc(S(N)(=O)=O)c(F)c3)c2)nc1 [Compound 203, 2-(5-(cyclopropylmethyl)-4-(3-fluoro-4-sulfamoylbenzyl)-3-(3-(5-methylpyridin-2-yl)phenyl)-1H-pyrazol-1-yl)thiazole-4-carboxylic acid]
100 to 1000	NS(=O)(=O)c1ccc(Cc2c(-c3cccc(-c4ccc(C(F)(F)C(F)(F)F)cc4)c3)nn(-c3nc(C(=O)O)cs3)c2CCC2CC2)cc1F [Compound 205, 2-(5-(2-cyclopropylethyl)-4-(3-fluoro-4-sulfamoylbenzyl)-3-(4′-(perfluoroethyl)-[1,1′-biphenyl]-3-yl)-1H-pyrazol-1-yl)thiazole-4-carboxylic acid]
100 to 1000	CC(C)Cc1ccc(-c2cccc(-c3nn(-c4nc(C(=O)O)cs4)c(CCC4CC4)c3Cc3ccc(S(N)(=O)=O)c(F)c3)c2)cc1 [Compound 207, 2-(5-(2-cyclopropylethyl)-4-(3-fluoro-4-sulfamoylbenzyl)-3-(4′-isobutyl-[1,1′-biphenyl]-3-yl)-1H-pyrazol-1-yl)thiazole-4-carboxylic acid]
100 to 1000	Cc1ccc(-c2ccc(-c3cc(-c4nn(-c5nc(C(=O)O)cs5)c(CC5CC5)c4Cc4ccc(S(N)(=O)=O)c(F)c4)ccc3F)cc2)s1 [Compound 209, 2-(5-(cyclopropylmethyl)-3-(6-fluoro-4′-(5-methylthiophen-2-yl)-[1,1′-biphenyl]-3-yl)-4-(3-fluoro-4-sulfamoylbenzyl)-1H-pyrazol-1-yl)thiazole-4-carboxylic acid]
< 100	Cc1cc(-c2cc(-c3nn(-c4nc(C(=O)O)cs4)c(CC4CC4)c3Cc3ccc(S(N)(=O)=O)c(F)c3)ccc2F)ccc1C(C)C [Compound 213, 2-[5-(cyclopropylmethyl)-3-[4-fluoro-3-(4-isopropyl-3-methylphenyl)phenyl]-4-[(3-fluoro-4-sulfamoylphenyl)methyl]pyrazol-1-yl]-1,3-thiazole-4-carboxylic acid]
< 100	Cc1ncc(-c2cccc(-c3nn(-c4nc(C(=O)O)cs4)c(CC4CC4)c3Cc3ccc(S(N)(=O)=O)c(F)c3)c2)cn1 [Compound 214, 2-[5-(cyclopropylmethyl)-4-[(3-fluoro-4-sulfamoylphenyl)methyl]-3-[3-(2-methylpyrimidin-5-yl)phenyl]pyrazol-1-yl]-1,3-thiazole-4-carboxylic acid]
